Test results as given in patent publication US11897880B2, “7,8-dihydrobenzo[e]pyrido[3,4-c]azocine-2,5(3H,6H)-dione derivatives useful as a factor XIa inhibitors” (Janssen Pharmaceutica NV, priority 2021, dated 2024).
Where two headings read alike, the source gives them in different places.

Columns and labels:
[1] = molecular target: human plasma kallikrein (Homo sapiens, UniProt P03952); test: Kallikrein inhibition assay utilizing a quenched AMC peptide substrate (FLINT); type: biochemical; settings: 30 min preincubation, 50 μM Z-Gly-Pro-Arg-AMC, 2 nM kallikrein
Sequence of human plasma kallikrein (P03952 391-638 limits assumed): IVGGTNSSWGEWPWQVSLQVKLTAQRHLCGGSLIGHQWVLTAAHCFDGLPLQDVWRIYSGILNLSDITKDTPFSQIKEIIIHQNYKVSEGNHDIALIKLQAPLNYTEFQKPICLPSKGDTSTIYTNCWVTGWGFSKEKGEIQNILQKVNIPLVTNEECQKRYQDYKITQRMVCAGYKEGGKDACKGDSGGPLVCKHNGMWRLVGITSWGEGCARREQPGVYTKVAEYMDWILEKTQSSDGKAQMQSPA
Sequence of human plasma kallikrein (P03952 20-390 partner limits assumed): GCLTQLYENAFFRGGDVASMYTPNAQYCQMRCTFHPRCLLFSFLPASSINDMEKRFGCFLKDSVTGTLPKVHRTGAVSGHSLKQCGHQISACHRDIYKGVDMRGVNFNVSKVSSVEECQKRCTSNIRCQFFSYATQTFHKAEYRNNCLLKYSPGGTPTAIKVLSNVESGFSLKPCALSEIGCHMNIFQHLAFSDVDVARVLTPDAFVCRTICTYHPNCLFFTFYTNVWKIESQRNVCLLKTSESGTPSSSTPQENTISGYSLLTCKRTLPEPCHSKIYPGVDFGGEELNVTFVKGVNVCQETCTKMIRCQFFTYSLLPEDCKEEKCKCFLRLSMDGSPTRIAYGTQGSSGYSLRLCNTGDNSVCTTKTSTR
Excerpt: Biological Example 2: Kallikrein Inhibition Assay Utilizing a Quenched AMC Peptide Substrate
A fluorescence intensity (FLINT) based assay was used to monitor inhibition of human plasma kallikrein. The peptide substrate, Z-Gly-Pro-Arg-AMC (Purchased from Bachem; Catalog #1-1150) was chosen based on its relatively low KM for kallikrein which enables running the assay at lower substrate concentrations to control background fluorescence.
The Kallikrein FLINT assay was used with the following Z-Gly-Pro-Arg-AMC assay buffer: 50 mM Tris, pH 7.5, 100 mM NaCl, 5 mM CaCl2), 0.1 mg/mL BSA, 0.03% CHAPS. Assay buffer was prepared by mixing all ingredients fresh. 2× Z-Gly-Pro-Arg-AMC peptide substrate was prepared by diluting 10 mM stock into 1× assay buffer for a 100 μM working concentration (50 μM final concentration). The 2× kallikrein stock solution was prepared by diluting 14.76 μM stock in 1× assay buffer for a 4 nM working stock solution (2 nM final concentration).
Test compound(s) were run in an 11-point, 3-fold serial dilution with a final top compound concentration of 1 μM. Final DMSO in assay was 2%. Plasma kallikrein was pre-incubated for 30-minute with compound and then 50 μM substrate was added to initiate the reaction. The assay was run with kinetic (KIN) reads at 5 min intervals over 30 minutes. The time course was linear using 2 nM kallikrein greater than 30 minutes. More specifically, the assay was run as follows: • 100 nL of 0.1 mM test compound was dispensed into black 384-well non-binding Greiner BioOne 784900 plate for 1 μM final concentration; • 5 μL of 1× assay buffer was dispensed to columns 24 (low control) and 5 μL 2× human kallikrein enzyme solution was dispensed to columns 1-23 (column 23 high control); • the plate was centrifuged with a “cover” plate at 500 rpm for 1 min • the plate was pre-incubated for 30 minutes at room temperature with plate covered; • 5 μL of 2× Z-Gly-Pro-Arg-AMC peptide substrate was dispensed into the entire plate, columns 1-24; • the plate was centrifuged with a “cover” plate at 500 rpm for 1 min; the plate was read monitoring fluorescence intensity on the BMG PHERAStar at room temperature, using fluorescence module 340 nm/440 nm.
Percent inhibition (IC50) curves were generated per compound tested, and data was analyzed using a 4-parameter logistic fit using GeneData Screener. The relative fluorescence unit (RFU) values were normalized to percent inhibition using the following equation: % inhibition=((HC−LC)−(compound−LC)/(HC−LC))*100 where LC—low control=mean signal of human kallikrein enzyme or 100% inhibition of human kallikrein enzyme; HC—high control=mean signal of […]+Z-Gly-Pro-Arg-AMC peptide substrate with DMSO only.
An 11-point dose response curve for the test compound(s) was generated using GENDATA to determine IC50 value based on the following equation: Y=Bottom+(Top−Bottom)/(1+10^((log IC50−X)*HillSlope)) • where Y is the % inhibition in the presence of X inhibitor concentration, Top=high control=mean signal of human kallikrein enzyme+Z-Gly-Pro-Arg-AMC peptide substrate with DMSO only; Bottom=low control−mean signal of no human kallikrein enzyme or 100% inhibition of human kallikrein enzyme; HillSlope—Hill coefficient; and IC50=concentration of compound with 50% inhibition in relation to top/high control.
(§1) Representative compounds of formula (I) of the present invention were tested according to the procedure described in Biological Example 1 and Biological Example 2 above, with results as listed in Table 3, below.

[2] = molecular target: Factor XIa (Homo sapiens, UniProt P03951); test: Factor XIa inhibition assay utilizing a fluorophore-quencher pair peptide substrate (FLINT); type: biochemical; settings: for Ki: read-out: FXIa Ki; for IC50: read-out: FXIa IC50
Sequence of Factor XIa (P03951 388-625 limits assumed): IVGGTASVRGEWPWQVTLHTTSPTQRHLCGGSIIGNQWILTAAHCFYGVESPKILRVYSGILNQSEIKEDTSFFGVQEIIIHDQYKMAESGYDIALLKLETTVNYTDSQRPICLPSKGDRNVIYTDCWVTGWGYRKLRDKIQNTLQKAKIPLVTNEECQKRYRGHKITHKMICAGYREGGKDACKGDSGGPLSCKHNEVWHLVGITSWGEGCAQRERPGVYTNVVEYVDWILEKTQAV
Sequence of Factor XIa (P03951 19-387 partner limits assumed): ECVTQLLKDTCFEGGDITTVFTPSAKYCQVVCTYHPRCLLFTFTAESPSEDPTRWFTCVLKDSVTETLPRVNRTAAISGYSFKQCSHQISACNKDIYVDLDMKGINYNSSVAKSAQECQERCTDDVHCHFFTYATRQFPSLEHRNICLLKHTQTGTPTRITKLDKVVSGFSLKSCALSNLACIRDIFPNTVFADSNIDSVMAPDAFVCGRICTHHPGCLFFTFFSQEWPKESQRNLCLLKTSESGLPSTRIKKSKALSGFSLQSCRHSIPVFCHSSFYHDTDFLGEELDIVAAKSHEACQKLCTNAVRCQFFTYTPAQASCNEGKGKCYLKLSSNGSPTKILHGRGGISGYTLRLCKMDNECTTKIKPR
Excerpt: Biological Example 1: Factor XIa Inhibition Assay Utilizing a Fluorophore-Quencher Pair Peptide Substrate
A fluorescence intensity (FLINT) based assay was used to monitor inhibition of Factor XIa. The peptide substrate, 5Fam-KLTRAETV-K5Tamra (purchased from New England Peptide) was chosen based on the FXI sequence. Conversion of zymogen FXI to its activated form, FXIa, occurs by proteolytic cleavage by […] at two sites, Arg146 and Arg180. The custom peptide used in this assay was based on the Arg146 cleavage site of FXI. The peptide substrate was designed with a fluorophore-quencher pair, where the fluorescence is quenched until FXIa cleaves the 8-mer peptide after the Arg residue.
The Factor XIa FLINT assay was used with the following 5Fam-KLTRAETV-K5Tamra assay buffer: 50 mM Tris, pH 7.5, 100 mM NaCl, 5 mM CaCl2), 0.1 mg/mL BSA, 0.03% CHAPS. Assay buffer was prepared by mixing all ingredients fresh. 5Fam-KLTRAETV-K5Tamra peptide substrate was first prepared at 10 mM in 100% DMSO, then diluted to 3 mM in 100% DMSO. Assay buffer was then added directly to the 3 mM stock of substrate to prepare the 30 μM 2× working concentration (15 μM final concentration). The 2× Factor XIa stock solution was prepared by diluting 6.562 μM stock in 1× assay buffer for a […].
Test compound(s) were run in an 11-point, 3-fold serial dilution with a final top compound concentration of 100 nM. Final DMSO in assay was 2%. FXIa was preincubated with compound for 30-minutes and then substrate was added to initiate the reaction. The assay was run with kinetic (KIN) reads at 5 min intervals over 30 minutes. The time course was linear using […] FXIa greater than 30 minutes. More specifically, the assay was run as follows: • 100 nL of 0.01 mM test compound was dispensed into black 384-well non-binding Greiner BioOne 784900 plate for 0.1 μM final concentration; • 5 μL of 1× assay buffer was dispensed to column 24 (low control) and 5 μL 2× Factor XIa solution was dispensed to columns 1-23 (column 23 high control); • the plate was centrifuged with a “cover” plate at 500 rpm for 1 min • the plate was pre-incubated for 30 minutes at room temperature with plate covered; • 5 μL of 2×5Fam-KLTRAETV-K5Tamra peptide substrate was dispensed into the entire plate, columns 1-24; • the plate was centrifuged with a “cover” plate at 500 rpm for 1 min; • the plate was read monitoring fluorescence intensity on the BMG PHERAStar at room temperature, using fluorescence module 485 nm/520 nm.
Percent inhibition (IC50) curves were generated per compound tested, and data was analyzed using a 4-parameter logistic fit using GeneData Screener. The relative fluorescence unit (RFU) values were normalized to percent inhibition using the following equation: % inhibition=((HC−LC)−(compound−LC)/(HC−LC))*100
where LC−low control=mean signal of no Factor XIa or 100% inhibition of Factor XIa; HC−high control=mean signal of Factor XIa+5Fam-KLTRAETV-K5Tamra peptide substrate with DMSO only.
An 11-point dose response curve for the test compound(s) was generated using GENDATA to determine IC50 value based on the following equation: Y=Bottom+(Top−Bottom)/(1+10^((log IC50−X)*HillSlope))
where Y is the % inhibition in the presence of X inhibitor concentration, Top=high control=mean signal of Factor XIa+5Fam-KLTRAETV-K5Tamra peptide substrate with DMSO only; Bottom=low control−mean signal of no Factor XIa or 100% inhibition of Factor XIa; HillSlope−Hill coefficient; and IC50=concentration of compound with 50% inhibition in relation to top/high control.
as §1

[3] = cells that print μM themselves in the nM column
[4] = cells that print μM themselves in the nM column, same assay conditions
[5] = 30 min preincubation, 5Fam-KLTRAETV-K5Tamra substrate 15 μM final, kinetic reads

Question: With `Nc1ccc(-c2cnc([C@@H]3CCc4c5c(cc(=O)n43)-c3c(ccc(Cl)c3F)CC3(CC3)N(CCO)C5=O)[nH]2)c(F)n1` (single isomer, unassigned) [Compound 9, (S*)-12-(5-(6-amino-2-fluoropyridin-3-yl)-1H-imidazol-2-yl)-7-chloro-8-fluoro-2-(2-hydroxyethyl)-13,14-dihydro-2H-spiro[benzo[5,6]azocino[4,3-g]indolizine-3,1′-cyclopropane]-1,10(4H,12H)-dione] as the molecule, how does the IC50 [1] read?
Answer: > 10000 nM

Question: And the Ki [2, 3]?
Answer: 3.29 µM

Question: What about the IC50 [2, 4] of the same molecule?
Answer: 6.58 µM

Question: For `Nc1ccc(-c2cnc([C@H]3CCc4c5c(cc(=O)n43)-c3c(ccc(Cl)c3F)CC3(CC3)N(CCO)C5=O)[nH]2)c(F)n1` (single isomer, unassigned) [Compound 10, (R*)-12-(5-(6-amino-2-fluoropyridin-3-yl)-1H-imidazol-2-yl)-7-chloro-8-fluoro-2-(2-hydroxyethyl)-13,14-dihydro-2H-spiro[benzo[5,6]azocino[4,3-g]indolizine-3,1′-cyclopropane]-1,10(4H,12H)-dione], which IC50 [1] is on record?
Answer: > 10000 nM

Question: And the IC50 [2, 4]?
Answer: 1.85 µM

Question: What about the Ki [2] of the same molecule?
Answer: 0.926 µM

Question: `Nc1ccc(-c2cnc([C@@H]3CCc4c5c(cc(=O)n43)-c3c(ccc(Cl)c3F)CC3(CC3)N(CCO)C5=O)[nH]2)c(F)n1` (single isomer, unassigned) [Compound 11, (S*)-12-(5-(6-amino-2-fluoropyridin-3-yl)-1H-imidazol-2-yl)-7-chloro-8-fluoro-2-(2-hydroxyethyl)-13,14-dihydro-2H-spiro[benzo[5,6]azocino[4,3-g]indolizine-3,1′-cyclopropane]-1,10(4H,12H)-dione] was tested. Which IC50 [1] did it give?
Answer: > 10000 nM

Question: What about the IC50 [2, 4] of the same molecule?
Answer: 1.17 µM

Question: What about the Ki [2] of the same molecule?
Answer: 0.588 µM

Question: What does the source list for `Nc1ccc(-c2cnc([C@H]3CCc4c5c(cc(=O)n43)-c3c(ccc(Cl)c3F)CC3(CC3)N(CCO)C5=O)[nH]2)c(F)n1` (single isomer, unassigned) [Compound 12, (R*)-12-(5-(6-amino-2-fluoropyridin-3-yl)-1H-imidazol-2-yl)-7-chloro-8-fluoro-2-(2-hydroxyethyl)-13,14-dihydro-2H-spiro[benzo[5,6]azocino[4,3-g]indolizine-3,1′-cyclopropane]-1,10(4H,12H)-dione]?
Answer: IC50 [1]: > 10000 nM; IC50 [2, 5]: 0.0692 µM; Ki [2]: 0.0346 µM

Question: What does the source list for `O=C1NC2(CC2)Cc2ccc(Cl)c(F)c2-c2cc(=O)n3c(c21)CC[C@H]3c1ncc(-c2ccc3[nH]ccc3c2)[nH]1` (single isomer, unassigned) [Compound 13, (S*)-12-(5-(1H-indol-5-yl)-1H-imidazol-2-yl)-7-chloro-8-fluoro-13,14-dihydro-2H-spiro[benzo[5,6]azocino[4,3-g]indolizine-3,1′-cyclopropane]-1,10(4H,12H)-dione]?
Answer: IC50 [1]: 70 nM; IC50 [2, 5]: 0.002 µM; Ki [2]: 0.001 µM

Question: Which results are given for `O=C1NC2(CC2)Cc2ccc(Cl)c(F)c2-c2cc(=O)n3c(c21)CC[C@@H]3c1ncc(-c2ccc3[nH]ccc3c2)[nH]1` (single isomer, unassigned) [Compound 14, (R*)-12-(5-(1H-indol-5-yl)-1H-imidazol-2-yl)-7-chloro-8-fluoro-13,14-dihydro-2H-spiro[benzo[5,6]azocino[4,3-g]indolizine-3,1′-cyclopropane]-1,10(4H,12H)-dione]?
Answer: IC50 [1]: > 10000 nM; Ki [2, 3]: 1.02 µM; IC50 [2, 4]: 2.03 µM

Question: For `O=C1NC2(CC2)Cc2ccc(Cl)c(F)c2-c2cc(=O)n3c(c21)CC[C@H]3c1ncc(-c2ccc3[nH]ccc3c2)[nH]1` (single isomer, unassigned) [Compound 16, (S*)-12-(5-(1H-indol-5-yl)-1H-imidazol-2-yl)-7-chloro-8-fluoro-13,14-dihydro-2H-spiro[benzo[5,6]azocino[4,3-g]indolizine-3,1′-cyclopropane]-1,10(4H,12H)-dione], which IC50 [1] is on record?
Answer: > 10000 nM

Question: What about the IC50 [2, 4] of the same molecule?
Answer: 1.07 µM

Question: And the Ki [2]?
Answer: 0.535 µM

Question: `O=C1NC2(CC2)Cc2ccc(Cl)c(F)c2-c2cc(=O)n3c(c21)CC[C@@H]3c1ncc(-c2ccc3[nH]ccc3c2)[nH]1` (single isomer, unassigned) [Compound 17, (R*)-12-(5-(1H-indol-5-yl)-1H-imidazol-2-yl)-7-chloro-8-fluoro-13,14-dihydro-2H-spiro[benzo[5,6]azocino[4,3-g]indolizine-3,1′-cyclopropane]-1,10(4H,12H)-dione] was tested. Which IC50 [1] did it give?
Answer: > 10000 nM

Question: What about the IC50 [2, 4] of the same molecule?
Answer: 1.59 µM

Question: And the Ki [2]?
Answer: 0.796 µM

Question: With `CC1(C)Cc2ccc(Cl)c(F)c2-c2cc(=O)n3c(c2C(=O)N1)CC[C@H]3c1ncc(-c2ccc(N)nc2F)[nH]1` (single isomer, unassigned) [Compound 20, (S*)-12-(5-(6-amino-2-fluoropyridin-3-yl)-1H-imidazol-2-yl)-7-chloro-8-fluoro-3,3-dimethyl-3,4,13,14-tetrahydrobenzo[5,6]azocino[4,3-g]indolizine-1,10(2H,12H)-dione] as the molecule, how does the IC50 [1] read?
Answer: > 10000 nM

Question: What about the Ki [2, 3] of the same molecule?
Answer: 3.83 µM

Question: And the IC50 [2, 4]?
Answer: 7.65 µM
